The source of these data is patent US11510931B2, “Compositions and methods for treating ophthalmic conditions” (MEDICON PHARMACEUTICALS, INC., priority 2016, dated 2022).

Assay [1] has as its system concanavalin A-induced dry eye in rabbits. Nature of the assay: Concanavalin A (Con A)-induced dry eye disease (DED) model in rabbits: TBUT, Schirmer test, tear osmolarity, tear lactoferrin. The class given is in vivo, rabbit. As to the method: To assess the efficacy of PS on DED an improved concanavalin A model was used. In the concanavalin A model, dry eye is induced by injecting the lacrimal glands of a mammal with concanavalin A, a selective T cell mitogen that induces a lymphocytic infiltrate in these glands. The concanavalin A model is generally described in (Barabino S. Animal models of dry eye. Arch Soc Esp Oftalmol. 2005; 80(12):693-4). Concanavalin A was injected to the lacrimal glands under ultrasound guidance, thus eliminating injections to the vicinity of the gland (as opposed to the gland itself). The head and the tail of the major lacrimal gland of the rabbit were injected separately. The dose of concanavalin A was optimized for DED signs.
In the testing described below, four markers of DED are monitored: the tear break up time (TBUT), the Schirmer test, tear osmolarity, and tear lactoferrin levels. All assays were performed at the same clock time (±1 hr) to avoid assay variability on account of circadian variations.
In an efficacy experiment using the concanavalin A model, one group of rabbits was treated with compound 5, also known as phosphosulindac and abbreviated as PS, 1.5% eye drops and one group with vehicle. […] It is thus clear that PS applied topically suppresses DED.
Con A was injected under ultrasound guidance into all the lacrimal glands and the success of the injection was verified by a post-injection ultrasound image (see FIG. 1 and FIG. 2). […] This variation explains why the blind injections recommended in the original method are often unsuccessful. This was confirmed by mixing the Con A solution with methylene blue and tracking its course after injection. In about ⅓ of the cases, Con A ended up outside the gland.
Four parameters of efficacy were evaluated instead of the usual one or two. They include (a) the tear break up time (TBUT), determined using 0.2% fluorescein over the eye and recording the time taken to develop black dots, lines or obvious disruption of the fluorescein film; (b) tear osmolarity, measured using TearLab Osmolarity Test and following the manufacturer's instructions (TearLab Corp., San Diego, Calif.); (3) Schirmer tear test (STT), determined using Schirmer strips (EagleVision, Denville, N.J.) inserted between the cornea and the palpebral conjunctiva at the mid-point of the lower lid and measuring the length of moistened strip at 5 min; and (4) tear lactoferrin levels measured by ELISA kit (MyBiosource, San Diego, Calif.) following the instructions of the manufacturer. All four have been used in clinical practice and correlate with the clinical activity of the disease. The STT is the least reliable and, as result, it is clinically used less than half as frequently as TBUT.
The injections of Con A to the lacrimal glands were repeated weekly as needed. When longer than a 1-week periods of study are needed, repeat injections prolong dry eye for at least 3 weeks, making the originally acute model chronic.
PS Suppresses Con A—Induced Dry Eye in Rabbits. The effect of PS on dry eye was determined in New Zealand White (NZW) rabbits, 2-3 kg (Charles River Labs, Waltham, Mass.). These rabbits were housed singly in rooms with strict temperature (70±5° F.) and humidity (45±5%) control and acclimated for at least 2 weeks prior to induction of dry eye by injection of Con A as above. NZW rabbits with Con A-induced dry eye (three sets of injections) were treated with PS formulated as nanoparticles and administered topically as eye drops 3×/day for 21 days, starting on the day of Con A injection. […] Similar results were obtained on days 5 and 14 (data not shown).
Using this model, we compared the effect of PS to that of cyclosporine and lifitegrast. Rabbits were treated for 6 days with PS as above or cyclosporine 0.05% or lifitegrast 5% eye drops 3×/day. In addition to determining TUBT, osmolarity and STT, we measured the levels of IL-8 and IL-1β in the ILGs of the rabbits harvested at euthanasia. […]

In the next assay the test system is JNK and Erk1/2. Briefly: MAPK activation by phosphorylation in human conjunctival cells (immunoblot). The class given is cell-based. As to conditions: 3.5 h, FIG. 6B. The procedure: FIGS. 6A and 6B illustrate that PS suppresses the activation of NF-κB and MAPKs. In FIG. 6A, NF-κB activation was determined by EMSA in cultured human conjunctival cells stimulated with TNFα (top) and in the ILG of rabbits with Con A-induced DED and treated for one week with either vehicle or PS (bottom). In FIG. 6B, immunoblots detecting the activation of MAPKs by phosphorylation in cultured human conjunctival cells treated with PS at the indicated concentrations for 3.5 h. Loading control: β-actin.
Our conjunctiva cells express only the JNK and Erk1/2 pathways.
A general note: A western blot detects proteins with antibodies after separation by electrophoresis.

Another assay deals with NF-κB. Briefly: NF-κB activation by EMSA in TNF-α-stimulated human conjunctival cells. The format is cell-based. As to conditions: PS 5 h then TNF-α 10 ng/ml 1 h, FIG. 6A. From the text: The Mechanism of Action of PS in Dry Eye. Tissue culture, animal and human studies have established inflammation as the core mechanism of DED^8. To determine the mechanism of action of PS in DED the response to PS of several factors known to play an important role in the inflammation associated with DED was explored. They include NF-κB; the cytokines TGF-β, IL-1 β, IL-6 and IL-8; the collagenases MMP-1 and MMP-9; and PGE2. In these studies we used human conjunctival epithelial cells, the Wong-Kilbourne derivative of Chang conjunctival cells (clone 1 to 5c-41 American Type Culture Collection (Manassas, Va.) certified cell line, 20.2).
Human conjunctival cells were treated with various concentrations of PS. Five hours later, TNF-α was added to the culture medium to a final concentration of 10 ng/ml and the status of NF-κB activation was determined by EMSA 1 h later. […] Similarly, after 1 week of treatment, PS suppressed NF-κB activation in the ILG of rabbits with DED compared to those treated with vehicle.
In general terms: A gel shift assay detects complexes by their altered migration in electrophoresis.

The mark [2] stands for this setting: Baseline, PS 1.5% eye drops, Mean ± SEM.
[3] abbreviates: Con A DED rabbits, 6 days, eye drops 3×/day, PS nanoparticles, cyclosporine 0.05%, lifitegrast 5%, mean ± SEM.
[4] abbreviates: Day 13, PS 1.5% eye drops, Mean ± SEM.
Where [5] appears, read: after 1 week of treatment, FIG. 5.

Each structure is given as a SMILES string.

With `CCOP(=O)(OCC)OCCCCOC(=O)CC1=C(C)/C(=C/c2ccc([S+](C)[O-])cc2)c2ccc(F)cc21` (stereo not drawn) [PS, phosphosulindac], in assay [1] (setting [2]), the Schirmer test was 14.6 ± 0.9 mm, the TBUT amounted to 52.3 ± 4.6 s and the Tear lactoferrin is 3.09 ± 0.4 ng/mg protein. In assay [1] (setting [3]), this molecule gave an Osmolarity of 294 ± 4.6 mOsm/L, an STT of 12.3 ± 0.6 mm and a TBUT of 43.6 ± 4.0 s. Besides, the Schirmer test in assay [1] (Day 11, PS 1.5% eye drops, Mean ± SEM) amounted to 9.5 ± 1.0 mm. In assay [1] (setting [4]), this molecule came in with a TBUT of 56.0 ± 4.0 s and a Tear lactoferrin of 3.19 ± 0.2 ng/mg protein. In assay [1] (PS nanoparticles eye drops 3×/day for 21 days, FIG. 4), the “TBUT, tear osmolarity and tear lactoferrin levels” value is recorded as “restored to normal”. For the same molecule, the STT value result in assay [1] (PS nanoparticles eye drops 3×/day for 21 days, difference from vehicle significant only for trend, FIG. 4) was “improved”. Moreover, in assay [1] (setting [5]), the STT entry is recorded as “no significant effect”; the TBUT and osmolarity result is reported as “normalized”. In the assay on JNK and Erk1/2, the “activation by phosphorylation of JNK and Erk1/2” value was “profoundly suppressed”. For the same molecule, in the assay on NF-κB, the “activation of NF-κB (EMSA)” value is on record as “significantly suppressed”.
